Assay [1] has as its target T1, vasopressin V1 receptor subtype in human platelet membranes (Homo sapiens, UniProt P37288).
T1 construct: tissue Hudson Valley Blood Services; host or cells: human blood platelets (frozen platelet rich plasma)
Briefly: Binding to Vasopressin V1 Receptor Subtype in Human Platelet Membranes. Conditions: for IC50: human platelet V1 (*). Here is the method:
(a) Platelet Membrane Preparation:
Frozen platelet rich plasma (PRP), received from the Hudson Valley Blood Services, are thawed to room temperature. (Platelet Source: Hudson Valley Blood Services, Westchester Medical Center, Valhalla, N.Y.). The tubes containing the PRP are centrifuged at 16,000×g for 10 min. at 4° C. and the supernatant fluid discarded. The platelets resuspended in an equal volume of 50.0 mM Tris.HCl, pH 7.5 containing 120 mM NaCl and 20.0 mM EDTA. The suspension is recentrifuged at 16,000×g for 10 min. This washing step is repeated one more time. The wash discarded and the lysed pellets homogenized in low ionic strength buffer of Tris.HCl, 5.0 mM, pH 7.5 containing 5.0 mM EDTA. The homogenate is centrifuged at 39,000×g for 10 min. The resulting pellet is resuspended in Tris.HCl buffer, 70.0 mM, pH 7.5 and recentrifuged at 39,000×g for 10 min. The final pellet is resuspended in 50.0 mM Tris.HCl buffer pH 7.4 containing 120 mM NaCl and 5.0 mM KCl to give 1.0-2.0 mg protein per ml of suspension.
(b) Binding to Vasopressin V1 Receptor Subtype in Human Platelet Membranes:
In wells of a 96 well format microtiter plate, add 100 μl of 50.0 mM Tris.HCl buffer containing 0.2% BSA and a mixture of protease inhibitors (aprotinin, leupeptin etc.). Then add 20 μl of [^3 H]Ligand (Manning or Arg^8 Vasopressin), to give final concentrations ranging from 0.01 to 10.0 nM. Initiate the binding by adding 80.0 μl of platelet suspension (approx. 100 μg protein). Mix all reagents by pipetting the mixture up and down a few times. Non specific binding is measured in the presence of 1.0 μM of unlabeled ligand (Manning or Arg^8 Vasopressin). Let the mixture stand undisturbed at room temperature for ninety (90) min. Upon this time, rapidly filter off the incubate under vacuum suction over GF/B filters, using a Brandel Harvester. The radioactivity caught on the filter disks is determined by the addition of liquid scintillant and counting in a liquid scintillator.

Assay [2] addresses T2, human V2 vasopressin receptor (Homo sapiens, UniProt P30518).
T2 construct: expressed in transfected cells; host or cells: mouse fibroblast cell line LV-2
In words: Binding to Membranes of Mouse Fibroblast Cell Line (LV-2) Transfected with the cDNA Expressing the Human V2 Vasopressin Receptor. Conditions: for IC50: LV-2 cells. The protocol:
Flasks of 175 ml capacity, containing attached cells grown to confluence, are cleared of culture medium by aspiration. The flasks containing the attached cells are rinsed with 2×5 ml of phosphate buffered saline (PBS) and the liquid aspirated off each time. Finally, 5 ml of an enzyme free dissociation Hank's based solution (Specialty Media, Inc., Lafayette, N.J.) is added and the flasks are left undisturbed for 2 min. The content of all flasks is poured into a centrifuge tube and the cells pelleted at 300×g for 15 min. The Hank's based solution is aspirated off and the cells homogenized with a polytron at setting #6 for 10 sec in 10.0 mM Tris.HCl buffer, pH 7.4 containing 0.25M sucrose and 1.0 mM EDTA. The homogenate is centrifuged at 1500×g for 10 min to remove ghost membranes. The supernatant fluid is centrifuged at 100,000×g for 60 min to pellet the receptor protein. Upon completion, the pellet is resuspended in a small volume of 50.0 mM Tris.HCl buffer, pH 7.4. The protein content is determined by the Lowry method and the receptor membranes are suspended in 50.0 mM Tris.HCl buffer containing 0.1 mM phenylmethylsulfonylfluoride (PMSF) and 0.2% bovine serum albumin (BSA) to give 2.5 mg receptor protein per ml of suspension.
For binding experiments, the following is added in μl volume to wells of a 96 well format of a microtiter plate: 100.0 μl of 100.0 mM Tris.HCl buffer containing 0.2% heat inactivated BSA, 10.0 mM MgCl2 and a mixture of protease inhibitors: leupeptin, 1.0 mg %; aprotinin, 1.0 mg %; 1,10-phenanthroline, 2.0 mg %; trypsin inhibitor, 10.0 mg % and 0.1 mM PMSF., 20.0 μl of [^3 H] Arginine^8, vasopressin (S.A. 75.0 Ci/mmole) at 0.8 nM and the reaction initiated by the addition of 80.0 μl of tissue membranes ([…]).
The plates are left undisturbed on the bench top for 120 min to reach equilibrium. Non specific binding is assessed in the presence of 1.0 μM of unlabeled ligand, added in 20 μl volume. For test compounds, these are solubilized in 50% dimethylsulfoxide (DMSO) and added in 20.0 μl volume to a final incubation volume of 200 μl. Upon completion of binding, the content of each well is filtered off, using a Brandel® cell Harvester (Gaithersburg, Md.). The radioactivity trapped on the filter disk by the ligand-receptor complex is assessed by liquid scintillation counting in a Packard LS Counter, with an efficiency of 65% for tritium.

Assay [3] deals with vasopressin V2. Briefly: Vasopressin V2 Antagonist Activity in Conscious Hydrated Rats (diuretic effect). To be noted: 10 mg/kg orally, AVP 0.4 μg/kg i.p. In kind it is in vivo, normal Sprague-Dawley rats. The method, boiled down: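 Conscious rats were dosed orally at 0.1–100 mg/kg, and AVP 0.4 μg/kg i.p. in peanut oil followed 1 h later. Urine volume, osmolality and Na/K/Cl were compared against AVP-treated controls, with non-AVP rats as water-loading controls.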

Assay [4] deals with vasopressin V1. In words: Vasopressin V1 Antagonist Activity in Conscious Rats (vasopressin vasopressor response). To be noted: 10 mg/kg i.v. In kind it is in vivo, rat (spontaneously hypertensive rats). The method, boiled down: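 Conscious rats had the ventral caudal tail artery cannulated into the lower abdominal aorta under local procaine anesthesia, plus a caudal vein cannula for intravenous dosing. Pulsatile blood pressure was recorded via a Statham P23Db transducer. Vasopressor responses to vasopressin injections were measured before and after compound dosing, with percent antagonism calculated relative to the pre-drug response taken as 100%.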

Assay [5] deals with T2, human V2 vasopressin receptor. Briefly: Binding to Membranes of Mouse Fibroblast Cell Line (LV-2) Transfected with the cDNA Expressing the Human V2 Vasopressin Receptor. To be noted: V2 column, printed with one *, read-out: V2, % at concentration in brackets.

T2 sequence (P30518 whole entry): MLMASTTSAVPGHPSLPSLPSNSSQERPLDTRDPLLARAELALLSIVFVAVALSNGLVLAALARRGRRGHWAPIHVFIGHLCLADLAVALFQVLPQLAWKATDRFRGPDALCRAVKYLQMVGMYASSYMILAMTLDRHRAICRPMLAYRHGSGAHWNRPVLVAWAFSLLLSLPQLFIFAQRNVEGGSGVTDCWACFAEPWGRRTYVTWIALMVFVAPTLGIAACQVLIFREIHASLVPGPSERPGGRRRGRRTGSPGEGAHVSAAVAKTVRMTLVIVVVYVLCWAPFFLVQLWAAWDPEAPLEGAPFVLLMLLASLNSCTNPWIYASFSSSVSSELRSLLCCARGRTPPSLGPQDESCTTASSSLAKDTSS
T1 sequence (P37288 whole entry): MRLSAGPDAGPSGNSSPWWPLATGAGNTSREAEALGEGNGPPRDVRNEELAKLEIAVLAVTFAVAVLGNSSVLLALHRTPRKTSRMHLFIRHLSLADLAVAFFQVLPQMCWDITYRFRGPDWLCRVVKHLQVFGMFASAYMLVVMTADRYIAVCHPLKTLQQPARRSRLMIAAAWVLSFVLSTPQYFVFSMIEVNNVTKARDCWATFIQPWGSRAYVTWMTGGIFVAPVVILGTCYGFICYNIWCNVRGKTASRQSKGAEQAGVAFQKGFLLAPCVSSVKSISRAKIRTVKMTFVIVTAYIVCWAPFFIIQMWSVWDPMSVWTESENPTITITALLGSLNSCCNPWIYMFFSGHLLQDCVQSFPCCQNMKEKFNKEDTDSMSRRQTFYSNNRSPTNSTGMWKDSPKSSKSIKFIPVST

The IC50 is the concentration that gives 50% inhibition. Read a low IC50 as greater potency. In turn, `Cc1c(F)cccc1C(=O)Nc1ccc(C(=O)N2Cc3ccccc3Cc3ccccc32)c(Cl)c1` [Example 264, N-[4-[(6,11-Dihydro-5H-dibenz[b,e]azepin-5-yl)-carbonyl]-3-chlorophenyl]-2-methyl-3-fluorobenzamide] showed an IC50 in assay [1] of 980 nM. In assay [2], the IC50 came out at 28 nM. In assay [3], the Osmolality is given as 682 mOsm/kg and the “Urine Volume” value is given as 12 ml/4 hrs.
In the same order, the values of `CCOC(=O)Cn1cc2c(n1)-c1ccccc1N(C(=O)c1ccc(NC(=O)c3ccc(Cl)cc3Cl)cc1)CC2` [Example 452, Ethyl 6-[4-[(2,4-dichlorobenzoyl)amino]benzoyl]-5,6-dihydropyrazolo[4,3-d][1]benzazepine-2(4H)-acetate] are 470 nM, 10 nM, 584 mOsm/kg and 7.8 ml/4 hrs.
Turning to `O=C(O)Cn1cc2c(n1)-c1ccccc1N(C(=O)c1ccc(NC(=O)c3ccc(Cl)cc3Cl)cc1)CC2` [Example 451, 6-[4-[(2,4-Dichlorobenzoyl)amino]benzoyl]-5,6-dihydropyrazolo[4,3-d][1]benzazepine-2(4H)-acetic acid], the inhibition at 1 µM in assay [1] (1.5 h, 1 μM, human platelet (*), read-out: *V1, % at concentration in brackets) was 35%. Besides, in assay [2] (1 μM, read-out: **V2, % at concentration in brackets), the inhibition at 1 µM worked out at 69%. For the same compound, in assay [3], the Osmolality is 989 mOsm/kg and the “Urine Volume” value came out at 5.3 ml/4 hrs.
In assay [1], `Cc1ccccc1C(=O)Nc1ccc(C(=O)N2Cc3sccc3Cc3ccccc32)cc1` [Example 458] gave an IC50 of 1.8 nM. The compound also returned an IC50 in assay [2] of 0.71 nM. Also, in assay [3], the Osmolality is listed as 537 mOsm/kg and the “Urine Volume” value is 13.5 ml/4 hrs. In assay [4], the “MAX % Inhibition” value amounted to 77% and the “Time of max % inhibition” value was 180 min.
On to `Cc1ccccc1NC(=O)Nc1ccc(C(=O)N2Cc3ccccc3Cc3ccccc32)cc1` [Example 122, 6,11-Dihydro-5-[4-[[[(2-methylphenyl)amino]carbonyl]-amino]benzoyl]-5H-dibenz[b,e]azepine], for which the inhibition at 10 µM in assay [1] (1.5 h, 10 μM, human platelet (*), read-out: *V1, % at concentration in brackets) stood at 95%; in assay [5], 92%.

The values are drawn from patent US5834461A, “Tricyclic benzazepine vasopressin antagonists” (American Cyanamid Company, priority 1997, dated 1998).
